Results published in patent US20250017856A1, “CO-FORMULATION AND CO-DELIVERY OF IONIZABLE COLLOID FORMING DRUGS WITH NUCLEIC ACIDS” (THE GOVERNING COUNCIL OF THE UNIVERSITY OF TORONTO, priority 2023, published 2025).

Tests used:
[1] = RNA encapsulation efficiency (modified Quant-iT RiboGreen assay) and loading; format: physicochemical; conditions: for siRNA encapsulation (in words): drugs that were not colloid formers; for Encapsulation efficiency (%) / Small molecule drug mass % / siRNA mass %: FxNP
Source text: (§1) [NT] antisense (SEQ ID NO: 2): [NT] where “d” denotes a DNA base), siFLuc-2 (sense (SEQ ID NO: 3): [NT] antisense (SEQ ID NO: 4): [NT] where “d” denotes a DNA base and “m” indicates a 2'-O-methyl RNA base), sinLuc (sense (SEQ ID NO: 5): [NT] antisense SEQ ID NO: 6): [NT] where “d” denotes a DNA base), […]1 (sense (SEQ ID NO: 7): [NT] antisense (SEQ ID NO: 8): [NT] where “d” denotes a DNA base and “m” indicates a 2'-O-methyl RNA base), siNT (sense (SEQ ID NO: 9): [NT] antisense (SEQ ID NO: 10): [NT] where “d” denotes a DNA base and “m” indicates a 2'-O-methyl RNA base), mFLuc (EZ Cap Firefly Luciferase mRNA (5-moUTP), ApexBio), rRNA or RNA from Torula utilis yeast (T.U. RNA) was diluted in citrate buffer (50 or 25 mM, pH 4), malate buffer (25 mM, pH 4.0) or acetate buffer (25 mM, pH 4.0). A lipid/drug mix concentration of 5.5 mM was used with a total flow rate of 9 mL/min at a 3:1 ratio of aqueous to organic phase. […] After formulation, buffer exchange into PBS or Tris-buffered saline (TBS; pH 8.5) was performed using Amicon Ultra-4 centrifugal filters (molecular weight cut-off 10 kDa). Hydrodynamic diameter, polydispersity index (PDI), and scattering intensity were measured by dynamic light scattering (DLS) using a DynaPro Plate Reader II (Wyatt Technologies). The instrument was configured with a 60 mW 830 nm laser and a detector angle of 158°. A 25 μL sample of each formulation was pipetted into each well of a 384-well plate and measured with 20 acquisitions per sample at 25° C. […] Quant-iT RiboGreen reagent was added, and fluorescence intensity was quantified using a Tecan Infinite […] plate reader.

[2] = Hydrodynamic diameter and polydispersity index by dynamic light scattering; format: physicochemical; conditions: FxNP
Source text: as §1

[3] = ionizable compound (fulvestrant analog); cited from earlier work
[4] = Zeta potential (Malvern Zetasizer); format: physicochemical; conditions: FxNP
Description: Zeta potential was measured by diluting FXNPs in phosphate to an ion concentration of 1 mM and using a Malvern Zetasizer Nano ZS instrument.

Structure (SMILES)	Hydrodynamic diameter (nm) ([2]; siFLuc, DOPC)	PDI ([2]; siFLuc, DOPC)	Hydrodynamic diameter (nm) ([2]; siFLuc, DSPC)	PDI ([2]; siFLuc, DSPC)	Hydrodynamic diameter (nm) ([2]; sinLuc, DOPC)	PDI ([2]; sinLuc, DOPC)	Encapsulation efficiency (%) ([1]; siFLuc, DOPC)	Small molecule drug mass % ([1]; siFLuc, DOPC)	siRNA mass % ([1]; siFLuc, DOPC)	Encapsulation efficiency (%) ([1]; siFLuc, DSPC)	Small molecule drug mass % ([1]; siFLuc, DSPC)	siRNA mass % ([1]; siFLuc, DSPC)	Encapsulation efficiency (%) ([1]; sinLuc, DOPC)	Small molecule drug mass % ([1]; sinLuc, DOPC)	siRNA mass % ([1]; sinLuc, DOPC)	pKa [3]	Zeta potential (mV) ([4]; siFLuc, DOPC)	Zeta potential (mV) ([4]; siFLuc, DSPC)	Zeta potential (mV) ([4]; sinLuc, DOPC)	also measured
CNCCC=C1c2ccccc2CCc2ccccc21 [nortriptyline, reference compound]	–	–	–	–	–	–	–	–	–	–	–	–	–	–	–	–	–	–	–	siRNA encapsulation (in words) [1]: did not encapsulate siRNA in nanoparticles or encapsulated siRNA at low efficiency
CC12CCC3c4ccc(O)cc4CC(CCCCCCCCCS(=O)(CCCC(F)(F)C(F)(F)F)=NC(=O)CCN4CCOCC4)C3C1CCC2O (stereo not shown) [7d]	199.0 nm	0.066	154.9 nm	0.036	224.8 nm	0.093	80.3%	56.5%	4.0%	88.3%	56.3%	4.4%	76.4%	56.6%	3.8%	5.7	−8.00 mV	−11.83 mV	−14.27 mV	–
CN(C)CCCN1c2ccccc2Sc2ccc(Cl)cc21 [chlorpromazine, reference compound]	–	–	–	–	–	–	–	–	–	–	–	–	–	–	–	–	–	–	–	siRNA encapsulation (in words) [1]: did not encapsulate siRNA in nanoparticles or encapsulated siRNA at low efficiency
CN[C@H]1CC[C@@H](c2ccc(Cl)c(Cl)c2)c2ccccc21 [sertraline, reference compound]	–	–	–	–	–	–	–	–	–	–	–	–	–	–	–	–	–	–	–	siRNA encapsulation (in words) [1]: did not encapsulate siRNA in nanoparticles or encapsulated siRNA at low efficiency
CN(C)CCC(=O)N=S(=O)(CCCCCCCCCC1Cc2cc(O)ccc2C2CCC3(C)C(O)CCC3C12)CCCC(F)(F)C(F)(F)F (stereo not shown) [7k]	–	–	426.9 nm	0.060	–	–	–	–	–	80.2%	55.1%	4.2%	–	–	–	7.8	–	−8.53 mV	–	–
CC12CCC3c4ccc(O)cc4CC(CCCCCCCCCS(=O)(CCCC(F)(F)C(F)(F)F)=NC(=O)CCN4CCCCC4)C3C1CCC2O (stereo not shown) [7g]	186.2 nm	0.022	170.8 nm	0.076	181.8 nm	0.042	96.6%	56.0%	4.8%	94.7%	56.0%	4.7%	94.9%	56.0%	4.7%	7.3	3.39 mV	−4.92 mV	0.01 mV	–
CC12CCC3c4ccc(O)cc4CC(CCCCCCCCCS(=O)(CCCC(F)(F)C(F)(F)F)=NC(=O)Cn4ccnc4)C3C1CCC2O (stereo not shown) [7b]	289.8 nm	0.003	141.0 nm	0.019	296.2 nm	0.012	81.7%	55.4%	4.2%	85.5%	55.2%	4.4%	84.9%	55.3%	4.4%	5.4	−7.61 mV	−12.50 mV	−11.53 mV	–
CC12CCC3c4ccc(O)cc4CC(CCCCCCCCCS(=O)(CCCC(F)(F)C(F)(F)F)=NC(=O)CN)C3C1CCC2O (stereo not shown) [7m]	–	–	447.8 nm	Multimodal	–	–	–	–	–	88.1%	53.4%	4.7%	–	–	–	8.1	–	−6.62 mV	–	–
CC12CCC3c4ccc(O)cc4CC(CCCCCCCCCS(=O)(CCCC(F)(F)C(F)(F)F)=NC(=O)CN4CCCC4)C3C1CCC2O (stereo not shown) [7h]	–	–	160.5 nm	0.183	–	–	–	–	–	86.4%	55.3%	4.4%	–	–	–	7.3	–	−7.54 mV	–	–
CN(C)CC(=O)N=S(=O)(CCCCCCCCCC1Cc2cc(O)ccc2C2CCC3(C)C(O)CCC3C12)CCCC(F)(F)C(F)(F)F (stereo not shown) [7f]	155.5 nm	0.041	147.8 nm	0.075	161.0 nm	0.039	91.3%	54.3%	4.8%	94.8%	54.2%	4.9%	92.4%	54.3%	4.8%	7.0	−5.09 mV	−10.01 mV	−3.97 mV	nanoparticle formation with RNA cargos of varying molecular weight ([1]; siRNA, T.U. RNA, rRNA, mRNA): form nanoparticles encapsulating a range of RNA cargos
CC12CCC3c4ccc(O)cc4CC(CCCCCCCCCS(=O)(CCCC(F)(F)C(F)(F)F)=NC(=O)CCN4CCCC4)C3C1CCC2O (stereo not shown) [7j]	–	–	337.1 nm	0.225	–	–	–	–	–	72.0%	56.2%	3.7%	–	–	–	7.6	–	−3.56 mV	–	–
CC12CCC3c4ccc(O)cc4CC(CCCCCCCCCS(=O)(CCCC(F)(F)C(F)(F)F)=NC(=O)CN4CCCCC4)C3C1CCC2O (stereo not shown) [7e]	214.2 nm	0.068	132.6 nm	0.041	215.1 nm	0.066	90.8%	55.7%	4.6%	90.8%	55.7%	4.6%	89.7%	55.7%	4.5%	6.4	−2.88 mV	−11.13 mV	−7.23 mV	–
CC[C@H]1CN2CCc3cc(OC)c(OC)cc3[C@@H]2C[C@@H]1C[C@H]1NCCc2cc(OC)c(OC)cc21 [emetine, reference compound]	–	–	–	–	–	–	–	–	–	–	–	–	–	–	–	–	–	–	–	siRNA encapsulation (in words) [1]: did not encapsulate siRNA in nanoparticles or encapsulated siRNA at low efficiency
CN1CCN(CC(=O)N=S(=O)(CCCCCCCCCC2Cc3cc(O)ccc3C3CCC4(C)C(O)CCC4C23)CCCC(F)(F)C(F)(F)F)CC1 (stereo not shown) [7i]	–	–	338.6 nm	0.218	–	–	–	–	–	52.8%	57.2%	2.7%	–	–	–	7.4	–	−3.98 mV	–	–
CC12CCC3c4ccc(O)cc4CC(CCCCCCCCCS(=O)(CCCC(F)(F)C(F)(F)F)=NC(=O)CCn4ccnc4)C3C1CCC2O (stereo not shown) [7c]	159.4 nm	0.043	136.0 nm	0.017	180.1 nm	0.072	87.5%	55.7%	4.4%	89.3%	55.6%	4.5%	73.7%	56.1%	3.8%	5.5	−8.02 mV	−10.15 mV	−10.97 mV	–
CC12CCC3c4ccc(O)cc4CC(CCCCCCCCCS(=O)(CCCC(F)(F)C(F)(F)F)=NC(=O)C[N+](C)(C)C)C3C1CCC2O (stereo not shown) [7l]	–	–	539.2 nm	Multimodal	–	–	–	–	–	87.6%	54.9%	4.5%	–	–	–	–	–	−2.05 mV	–	–
